From ChEMBL document CHEMBL1148744, “Synthesis and antiviral and cytostatic evaluations of the new C-5 substituted pyrimidine and furo[2,3-d]pyrimidine 4',5'-didehydro-L-ascorbic acid derivatives” (J Med Chem, 2007)
Converted amounts (≈) assume the structure as drawn.

System: Vaccinia virus
Assay: Antiviral activity against Vaccinia virus in HEL cells assessed as reduction of virus-induced cytopathogenicity
Assay type: functional
Conditions: Orthopoxvirus vaccinia

Structure (SMILES)	MIC [µM]
Nc1nc2c(ncn2COCCO)c(=O)[nH]1 [ACYCLOVIR]	> 250
O=c1[nH]c(=O)n([C@H]2C[C@H](O)[C@@H](CO)O2)cc1/C=C/Br [BRIVUDINE]	2 (≈ 0.666 µg/mL)
NC(=O)c1ncn([C@@H]2O[C@H](CO)[C@@H](O)[C@H]2O)n1 [RIBAVIRIN]	150 (≈ 36.6 µg/mL)
Nc1nc2c(ncn2COC(CO)CO)c(=O)[nH]1 [GANCICLOVIR]	100 (≈ 25.5 µg/mL)
